Patent publication US6346514B1, “Pharmaceutical lysine-containing polypeptide compositions and methods of use thereof” (priority 1991, dated 2002)

Key:
[1] = tested on: blood lymphoid cells and immune organs after irradiation; assay: Effect on immune system of irradiated guinea pigs; format: in vivo
Description: Twenty-two male guinea pigs were used in the following test.
Guinea pigs were exposed to irradiation in a total. does 1Gy.target-skin distance—70 cm; time of exposure—2′48″ Device: 180 kV; 15 mA; filter 0.5 Cu Treatment: i.m. single daily 1 microg. HM897 per kg for 5 days.
Treatment of controls: normal saline 0.5 ml i.m. single daily for 5 days.
Leukocyte and lymphocyte levels were measured in peripheral blood on the 7th, 14th, 21st, 36th and 44th day after irradiation.
In a second test 40 male guinea pigs were used, and the same regimen was followed.
There were two controls—irradiated and non-irradiated. Parameters were evaluated on the 8th and 21st days after irradiation. Tested parameters: clinical blood examination, non-specific resistance by lysosomal cationic test; “active” T-lymphocytes and total T-lymphocytes (E-RFC), B-lymphocytes (EAC-RFC) were measured in blood, thymus, lymph nodes, spleen and red bone marrow. Blood lymphocyte functional activity was evaluated by leukocyte migration inhibition (LMI) with ConA. Histological examinations of thymus, spleen, lymph nodes, bone marrow and adrenals were carried out.

B-lymphocytes = assay: Ig-receptor expression on B-lymphocytes of patients with secondary immunodeficiency; format: cell-based, human; settings: concentration 1 microg/ml
Description: The number of cells carrying Ig-receptors before and after incubation with the peptide has been measured (by means for FITC-labelled sera against human Ig).

posthemorrhagic anemia = assay: Erythropoietic effect in posthemorrhagic anemia; format: in vivo, mice
Description: This test was designed to study posthemorrhagic anemia (acute blood loss caused by taking blood from retroorbital sinus), and hemolytic anemia induced by phenylhydrazine hydrochloride (120 mg active ingredients/kg 30 Balb/c-mice and 30 CBA-mice). HM897 was injected intraperitoneally in doses of 100 and 150 microg per kg, 3 hours and 1 day after intervention modelling anemia, for 5 days. Tester parameters: RBC, leukocytes, reticulocytes, Hb, Hct

For Thr-Ala-Glu-Glu-Lys (TAEEK) [HM897], the “leukocyte and lymphocyte levels in peripheral blood” value ([1]; irradiation 1 Gy, 1 microg per kg i.m. daily for 5 days, days 7-44) was “restoration of leukocyte and lymphocyte levels”, the “peripheral blood lymphocytes and neutrophil functional activity” value ([1]; second test, irradiated animals) was “restored peripheral blood lymphocytes and neutrophil functional activity” and the “T-lymphocyte maturation and migration” value ([1]; second test, irradiated animals, early terms of observation) was “accelerates T-lymphocyte maturation and their migration to peripheral immune organs”. For the same substance, the “proliferation and differentiation in organs of the immune system” value ([1]; second test, irradiated animals, later stage of the study) was “enhancement of proliferation and differentiation in both central and peripheral organs of the immune system”, the “cells carrying Ig-receptors of different types” value (B-lymphocytes) was “significant increase” and the “Hb level and plasma/formed elements ratio restoration” value (posthemorrhagic anemia) was “more rapid”. For the same substance, the most effective dose (posthemorrhagic anemia; doses 100 and 150 i.p.) was 0.15 mg/kg and the RBC count (posthemorrhagic anemia; on the 6th day after administration) was 7.1 mln/ml.
